Several values for one entry are separate records, joined by “and”; a condition that tells them apart may be missing. Equal values may be shown once. Where a SMILES comes first, the peptide text is derived from it. [ ]: non-standard residue; d: D form. Hyp = O=C(O)[C@@H]1C[C@@H](O)CN1
Legend:
[1] = tested on: TIMP-1; test: Example 8 main study Luminex, LPS hPBMCs: TIMP-1; assay type: cell-based, human
Procedure: (§1) Human PBMCs were pretreated with YY-101, YDE-011, YDE-043 or reference compound; Xiidra® at various concentration (ranging from […] to 500 nM) for 2 h before stimulation. An equal volume of 0.5% DMSO was used as a vehicle control. Then, the cells were treated with LPS at 5 ug/ml, which was selected based on the pilot study. The supernatants from treated cells were harvested at 24 h and placed in a 96 well for Luminex cytokine & chemokine profiling using a Luminex 200 multiplex assay (Luminex; R&D system, USA).
(§2) The main study arm with triplicate wells per group in a 24-well plate: • 1. Blank • 2. PBMC: 0.5% DMSO • 3. PBMC+LPS (5 ug/ml) • 4. PBMC+YY-101 500 nM • 5. PBMC+YY-101 50 nM • 6. PBMC+YY-101 5 nM • 7. PBMC+YY-101 0.5 nM • 8. PBMC+LPS (5 ug/ml)+Xiidra® 500 nM • 9. PBMC+LPS (5 ug/ml)+Xiidra® 50 nM • 10. PBMC+LPS (5 ug/ml)+Xiidra® 5 nM • 11. PBMC+LPS (5 ug/ml)+Xiidra® 0.5 nM • 12. PBMC+LPS (5 ug/ml)+Xiidra® 0.05 nM • 13. PBMC+LPS (5 ug/ml)+Xiidra® 0.005 nM • 14. PBMC+LPS (5 ug/ml)+YY-101 500 nM • 15. PBMC+LPS (5 ug/ml)+YY-101 50 nM • 16. PBMC+LPS (5 ug/ml)+YY-101 5 nM • 17. PBMC+LPS (5 ug/ml)+YY-101 0.5 nM • 18. PBMC+LPS (5 ug/ml)+YY-101 0.05 nM • 19. PBMC+LPS (5 ug/ml)+YY-101 0.005 nM • 20. PBMC+LPS (5 ug/ml)+YDE-011 500 nM • 21. PBMC+LPS (5 ug/ml)+YDE-011 50 nM • 22. PBMC+LPS (5 ug/ml)+YDE-011 5 nM • 23. PBMC+LPS (5 ug/ml)+YDE-011 0.5 nM • 24. PBMC+LPS (5 ug/ml)+YDE-011 0.05 nM • 25. PBMC+LPS (5 ug/ml)+YDE-011 0.005 nM • 26. PBMC+LPS (5 ug/ml)+YDE-043 500 nM • 27. PBMC+LPS (5 ug/ml)+YDE-043 50 nM • 28. PBMC+LPS (5 ug/ml)+YDE-043 5 nM • 29. PBMC+LPS (5 ug/ml)+YDE-043 0.5 nM • 30. PBMC+LPS (5 ug/ml)+YDE-043 0.05 nM • 31. PBMC+LPS (5 ug/ml)+YDE-043 0.005 nM
(§3) Multiplex assay was used to measure 30 cytokines and chemokines. The 1:200 diluted cell supernatant and serial dilution of the standard were dispensed into a 96 well plate at 50 ul/well. Then, the pre-mixed cocktail of antibody-coated magnetic beads was dispensed at 50 ul/well and incubated at room temperature for 2 h in a horizontal orbital microplate shaker at 800±500 rpm. The beads were washed using a magnetic device to prevent loss. The biotin-antibody was dispensed in 50 ul of each well and incubated at room temperature for 1 h in a shaker at 800±500 rpm. After washing, streptavidin-PE was added at 50 ul/well and incubated at room temperature for 30 min in a shaker under the same conditions. Finally, after washing, wash buffer (100 ul/well) was added to the plate and incubated in a shaker for 2 min. The Luminex™ 200 setting were set according to the manufacturer's protocol. The data was calculated with a standard five-parameter logistic nonlinear regression analysis of the data (xPonent software 4.2, USA). Results were presented as concentration (ng/ml or pg/ml).

[2] = tested on: MMP-9; test: Example 8 main study Luminex, LPS hPBMCs: MMP-9; assay type: cell-based, human
Procedure: as §1, §2, §3

[3] = PBMC without LPS, test article 0.5 nM
[4] = PBMC without LPS, test article 5 nM
[5] = PBMC without LPS, test article 0.05 uM
[6] = PBMC without LPS, test article 50 nM
[7] = PBMC without LPS, test article 500 nM
[8] = PBMC + LPS(5 ug/ml), test article 0.005 nM, Mean
[9] = PBMC + LPS(5 ug/ml), test article 0.005 nM, single replicates
[10] = PBMC + LPS(5 ug/ml), test article 0.05 nM, Mean
[11] = PBMC + LPS(5 ug/ml), test article 0.05 nM, single replicates
[12] = PBMC + LPS(5 ug/ml), test article 0.5 nM, Mean
[13] = PBMC + LPS(5 ug/ml), test article 0.5 nM, single replicates
[14] = PBMC + LPS(5 ug/ml), test article 5 nM, Mean
[15] = PBMC + LPS(5 ug/ml), test article 5 nM, single replicates
[16] = PBMC + LPS(5 ug/ml), test article 50 nM, Mean
[17] = PBMC + LPS(5 ug/ml), test article 50 nM, single replicates
[18] = PBMC + LPS(5 ug/ml), test article 500 nM, Mean
[19] = PBMC + LPS(5 ug/ml), test article 500 nM, single replicates
[20] = PBMC without LPS, test article 0.5 nM, Mean
[21] = PBMC without LPS, test article 0.5 nM, single replicates (1st, 2nd)
[22] = PBMC without LPS, test article 5 nM, Mean
[23] = PBMC without LPS, test article 5 nM, single replicates (1st, 2nd)
[24] = PBMC without LPS, test article 0.05 uM, Mean
[25] = PBMC without LPS, test article 0.05 uM, single replicates (1st, 2nd)
[26] = PBMC without LPS, test article 50 nM, Mean
[27] = PBMC without LPS, test article 50 nM, single replicates (1st, 2nd)
[28] = PBMC without LPS, test article 500 nM, Mean
[29] = PBMC without LPS, test article 500 nM, single replicates (1st, 2nd)

SMILES: CC(C)C[C@H](NC(=O)CNC(=O)[C@H](CC(=O)O)NC(=O)[C@H](CCC(N)=O)NC(=O)CNC(=O)[C@@H]1C[C@@H](O)CN1)C(=O)N[C@@H](C)C(=O)NCC(=O)N1CCC[C@H]1C(=O)N[C@@H](CCCCN)C(=O)O [YY-101] (H-[Hyp]GQDGLAGPK-OH; N-terminus and C-terminus assumed)
- TIMP-1 Concentration (pg/ml), single replicates ([1]; PBMC + LPS(5 ug/ml), test article 500 nM): 3935.4 pg/ml (2×) and 3220.1 pg/ml
- TIMP-1 Concentration (pg/ml), Mean [1, 3]: 6580.9 pg/mL
- TIMP-1 Concentration (pg/ml), single replicates [1, 3]: 6173.1 pg/mL and 6988.8 pg/mL
- TIMP-1 Concentration (pg/ml), Mean [1, 4]: 6228.8 pg/mL
- TIMP-1 Concentration (pg/ml), single replicates [1, 4]: 6531.0 pg/mL and 5926.6 pg/mL
- TIMP-1 Concentration (pg/ml), Mean [1, 5]: 8751.3 pg/mL
- TIMP-1 Concentration (pg/ml), single replicates [1, 5]: 10402.5 pg/mL and 7100.2 pg/mL
- TIMP-1 Concentration (pg/ml), Mean [1, 6]: 6928.9 pg/mL
- TIMP-1 Concentration (pg/ml), single replicates [1, 6]: 7210.4 pg/mL and 6647.4 pg/mL
- TIMP-1 Concentration (pg/ml), Mean [1, 7]: 7209.9 pg/mL
- TIMP-1 Concentration (pg/ml), single replicates [1, 7]: 7100.2 pg/mL and 7319.6 pg/mL
- Concentration (pg/ml), MMP-9 [2, 8]: 4617.5 pg/mL
- MFI (Bead name: MMP-9) [2, 8]: 31.0
- Concentration (pg/ml), MMP-9 [2, 9]: 3688.0 pg/mL and 4925.2 pg/mL and 5239.4 pg/mL
- MFI (Bead name: MMP-9) [2, 9]: 28.0 and 32.0 and 33.0
- Concentration (pg/ml), MMP-9 [2, 10]: 4977.8 pg/mL
- MFI (Bead name: MMP-9) [2, 10]: 32.2
- Concentration (pg/ml), MMP-9 [2, 11]: 5239.4 pg/mL and 4925.2 pg/mL and 4768.8 pg/mL
- MFI (Bead name: MMP-9) [2, 11]: 33.0 and 32.0 and 31.5
- Concentration (pg/ml), MMP-9 [2, 12]: 5239.4 pg/mL
- MFI (Bead name: MMP-9) [2, 12]: 33.0
- Concentration (pg/ml), MMP-9 [2, 13]: 5239.4 pg/mL
- MFI (Bead name: MMP-9) [2, 13]: 33.0
- Concentration (pg/ml), MMP-9 [2, 14]: 5138.2 pg/mL
- MFI (Bead name: MMP-9) [2, 14]: 32.7
- Concentration (pg/ml), MMP-9 [2, 15]: 5239.4 pg/mL and 4302.5 pg/mL and 5872.9 pg/mL
- MFI (Bead name: MMP-9) [2, 15]: 33.0 and 30.0 and 35.0
- Concentration (pg/ml), MMP-9 [2, 16]: 5239.9 pg/mL
- MFI (Bead name: MMP-9) [2, 16]: 33.0
- Concentration (pg/ml), MMP-9 [2, 17]: 5239.4 pg/mL and 4925.2 pg/mL and 5555.3 pg/mL
- MFI (Bead name: MMP-9) [2, 17]: 33.0 and 32.0 and 34.0
- Concentration (pg/ml), MMP-9 [2, 18]: 5135.8 pg/mL
- MFI (Bead name: MMP-9) [2, 18]: 32.7
- Concentration (pg/ml), MMP-9 [2, 19]: 4612.9 pg/mL and 5239.4 pg/mL and 5555.3 pg/mL
- MFI (Bead name: MMP-9) [2, 19]: 31.0 and 33.0 and 34.0
- Concentration (pg/ml), MMP-9 [2, 20]: 16511.2 pg/mL
- MFI (Bead name: MMP-9) [2, 20]: 66.5
- Concentration (pg/ml), MMP-9 [2, 21]: 12836.1 pg/mL and 20186.4 pg/mL
- MFI (Bead name: MMP-9) [2, 21]: 56.0 and 77.0
- Concentration (pg/ml), MMP-9 [2, 22]: 14148.8 pg/mL
- MFI (Bead name: MMP-9) [2, 22]: 59.8
- Concentration (pg/ml), MMP-9 [2, 23]: 16823.6 pg/mL and 11474.0 pg/mL
- MFI (Bead name: MMP-9) [2, 23]: 67.5 and 52.0
- Concentration (pg/ml), MMP-9 [2, 24]: 17040.0 pg/mL
- MFI (Bead name: MMP-9) [2, 24]: 68.0
- Concentration (pg/ml), MMP-9 [2, 25]: 20901.3 pg/mL and 13178.7 pg/mL
- MFI (Bead name: MMP-9) [2, 25]: 79.0 and 57.0
- Concentration (pg/ml), MMP-9 [2, 26]: 10636.2 pg/mL
- MFI (Bead name: MMP-9) [2, 26]: 49.5
- Concentration (pg/ml), MMP-9 [2, 27]: 11813.2 pg/mL and 9459.2 pg/mL
- MFI (Bead name: MMP-9) [2, 27]: 53.0 and 46.0
- Concentration (pg/ml), MMP-9 [2, 28]: 11140.0 pg/mL
- MFI (Bead name: MMP-9) [2, 28]: 51.0
- Concentration (pg/ml), MMP-9 [2, 29]: 10126.8 pg/mL and 12153.3 pg/mL
- MFI (Bead name: MMP-9) [2, 29]: 48.0 and 54.0

Reference: US20230146455A1, “TREATMENT OF INFLAMMATORY DISEASES WITH PEPTIDES AND PHARMACEUTICAL COMPOSITIONS” (Yuyu Pharma, Inc., priority 2020, published 2023)
